Measured values as given in the NIST ThermoML archive (doi:10.1021/je100760v).
Numbers after ± are expanded uncertainties.

Experiment: osmotic coefficient (dimensionless); mn = molality of the nth substance listed, in mol/kg
Details: Liquid, isopiestic method

Compound: O.O=C([O-])C(=O)[O-].[K+].[K+] [potassium oxalate monohydrate] + O
- osmotic coefficient (298.15 K, m1 = 0.2731): 0.764 ± 0.012
- osmotic coefficient (298.15 K, m1 = 0.3247): 0.747 ± 0.013
- osmotic coefficient (298.15 K, m1 = 0.3721): 0.742 ± 0.013
- osmotic coefficient (298.15 K, m1 = 0.4551): 0.736 ± 0.013
- osmotic coefficient (298.15 K, m1 = 0.4898): 0.737 ± 0.013
- osmotic coefficient (298.15 K, m1 = 0.5836): 0.735 ± 0.013
- osmotic coefficient (298.15 K, m1 = 0.7175): 0.741 ± 0.013
- osmotic coefficient (298.15 K, m1 = 0.8532): 0.747 ± 0.013
- osmotic coefficient (298.15 K, m1 = 0.879): 0.746 ± 0.013
- osmotic coefficient (298.15 K, m1 = 1.163): 0.76 ± 0.012
- osmotic coefficient (298.15 K, m1 = 1.224): 0.76 ± 0.012
- osmotic coefficient (298.15 K, m1 = 1.403): 0.77 ± 0.012
- osmotic coefficient (298.15 K, m1 = 1.446): 0.771 ± 0.011
- osmotic coefficient (298.15 K, m1 = 1.553): 0.775 ± 0.011
- osmotic coefficient (298.15 K, m1 = 1.631): 0.777 ± 0.011
- osmotic coefficient (298.15 K, m1 = 1.763): 0.782 ± 0.011
- osmotic coefficient (298.15 K, m1 = 1.86): 0.789 ± 0.011
- osmotic coefficient (298.15 K, m1 = 1.865): 0.787 ± 0.011
- osmotic coefficient (298.15 K, m1 = 1.961): 0.791 ± 0.01
- osmotic coefficient (298.15 K, m1 = 2.166): 0.801 ± 0.01
- osmotic coefficient (308.15 K, m1 = 0.197): 0.768 ± 0.012
- osmotic coefficient (308.15 K, m1 = 0.2519): 0.745 ± 0.013
- osmotic coefficient (308.15 K, m1 = 0.2974): 0.737 ± 0.013
- osmotic coefficient (308.15 K, m1 = 0.3637): 0.734 ± 0.013
- osmotic coefficient (308.15 K, m1 = 0.4596): 0.726 ± 0.014
- osmotic coefficient (308.15 K, m1 = 0.5269): 0.72 ± 0.014
- osmotic coefficient (308.15 K, m1 = 0.5465): 0.719 ± 0.014
- osmotic coefficient (308.15 K, m1 = 0.5956): 0.719 ± 0.014
- osmotic coefficient (308.15 K, m1 = 0.6873): 0.722 ± 0.014
- osmotic coefficient (308.15 K, m1 = 0.7481): 0.721 ± 0.014
- osmotic coefficient (308.15 K, m1 = 0.8067): 0.719 ± 0.014
- osmotic coefficient (308.15 K, m1 = 0.8889): 0.721 ± 0.014
- osmotic coefficient (308.15 K, m1 = 0.9189): 0.724 ± 0.014
- osmotic coefficient (308.15 K, m1 = 1.088): 0.73 ± 0.014
- osmotic coefficient (308.15 K, m1 = 1.269): 0.739 ± 0.013
- osmotic coefficient (308.15 K, m1 = 1.541): 0.751 ± 0.012
- osmotic coefficient (308.15 K, m1 = 1.754): 0.768 ± 0.012
- osmotic coefficient (308.15 K, m1 = 1.933): 0.777 ± 0.011
- osmotic coefficient (308.15 K, m1 = 1.991): 0.782 ± 0.011
- osmotic coefficient (308.15 K, m1 = 2.108): 0.792 ± 0.01
- osmotic coefficient (308.15 K, m1 = 2.305): 0.804 ± 0.01
- osmotic coefficient (318.15 K, m1 = 0.2751): 0.729 ± 0.014
- osmotic coefficient (318.15 K, m1 = 0.3201): 0.725 ± 0.014
- osmotic coefficient (318.15 K, m1 = 0.3228): 0.721 ± 0.014
- osmotic coefficient (318.15 K, m1 = 0.4383): 0.709 ± 0.015
- osmotic coefficient (318.15 K, m1 = 0.4892): 0.709 ± 0.015
- osmotic coefficient (318.15 K, m1 = 0.596): 0.705 ± 0.015
- osmotic coefficient (318.15 K, m1 = 0.7938): 0.704 ± 0.015
- osmotic coefficient (318.15 K, m1 = 0.8879): 0.707 ± 0.015
- osmotic coefficient (318.15 K, m1 = 1.088): 0.715 ± 0.014
- osmotic coefficient (318.15 K, m1 = 1.261): 0.72 ± 0.014
- osmotic coefficient (318.15 K, m1 = 1.296): 0.725 ± 0.014
- osmotic coefficient (318.15 K, m1 = 1.643): 0.749 ± 0.013
- osmotic coefficient (318.15 K, m1 = 1.671): 0.748 ± 0.013
- osmotic coefficient (318.15 K, m1 = 1.72): 0.754 ± 0.012
- osmotic coefficient (318.15 K, m1 = 1.738): 0.752 ± 0.012
- osmotic coefficient (318.15 K, m1 = 1.869): 0.763 ± 0.012
- osmotic coefficient (318.15 K, m1 = 2.217): 0.78 ± 0.011
